Experimental data published in patent US4227003A, “Bromo-A-23187 derivatives” (Eli Lilly and Company, priority 1978, dated 1980).

Experiments:
[1] = system: Staphylococcus aureus (H-Heatley strain, NRRL B-314); assay: Bioassay for antibacterial activity; assay type: cell-based
From the text: The compounds of this invention are useful antibacterial agents. In this aspect, these compounds may be used in the same manner in which the parent antibiotic is used, as described in U.S. Pat. No. 3,923,823. A bioassay for the antibacterial activity of A-23187 has been described by J. E. Westhead in Antimicrobial Agents and Chemotherapy 11 (5), 916-918 (1977). The test organism for this bioassay is Staphylococcus aureus (H-Heatley strain, NRRL B-314).

[2] = Acute toxicity in mice, intraperitoneal; conditions: mouse, in vivo, ip
Procedure: The compounds of the present invention are, in general, less toxic than the parent antibiotic. Table II summarizes the acute toxicities of representative compounds in mice, expressed as LD50, when the compounds are administered intraperitoneally.

[3] = molecular target: cation transport ATPase in liver mitochondria; assay: In vitro inhibition of cation transport ATPase in liver mitochondria; assay type: biochemical
From the text: In yet another aspect, the compounds of this invention are active as inhibitors of the enzyme ATPase. ATPase, an alkali-metal-sensitive enzyme found in cell membranes, is involved in the energy necessary for active transport. "Active transport" refers to the energy-requiring series of operations whereby intracellular and extracellular fluids maintain their compositions. Inhibitors of ATPase reduce the energy required for active transport. Table III summarizes the results of in vitro tests measuring inhibition of cation transport ATPase in liver mitochondria [measured as half effective concentration (Ic50) in mcg/ml].

[4] = cited from earlier work
[5] = Pfeiffer and Lardy, Biochemistry 15, 935 (1976)

SMILES	Bioassay [1] [µg/mL]	LD50 [2] [mg/kg]	half effective concentration (Ic50), ATPase induced by CaCl2 [3] [µg/mL]	half effective concentration (Ic50), ATPase induced by K^+ monazomycin [3] [µg/mL]	discrimination for divalent over monovalent cations [4, 5]	transport of Mg^2+ versus Ca^2+ [4, 5]	selectivity for transport of divalent over monovalent cations ([4]; background, among approximately 100 known ionophores)
CNc1ccc2oc(CC3OC4(CCC3C)OC(C(C)C(=O)c3cc(Br)c(Br)[nH]3)C(C)CC4C)nc2c1C(=O)O (stereo not drawn) [23,24-dibromo-A-23187 (free acid), 5-(methylamino)-2-[[3β,9α,11β-trimethyl-8-[1α-methyl-2-oxo-2-(4,5-dibromo-1H-pyrrol-2-yl)ethyl]-1,7-dioxaspiro[5.5]undec-2β-yl]methyl]-4-benzoxazolecarboxylic acid]	1105	79.8	0.8	0.1	–	–	–
CNc1ccc2oc(CC3OC4(CCC3C)OC(C(C)C(=O)c3cc(Br)c[nH]3)C(C)CC4C)nc2c1C(=O)O (stereo not drawn) [23-bromo-A-23187 (free acid), 5-(methylamino)-2-[[3β,9α,11β-trimethyl-8-[1α-methyl-2-oxo-2-(4-bromo-1H-pyrrol-2-yl)ethyl]-1,7-dioxaspiro[5.5]undec-2β-yl]methyl]-4-benzoxazolecarboxylic acid]	1766	23.7	> 10	0.1	–	–	–
CNc1ccc2oc(CC3OC4(CCC3C)OC(C(C)C(=O)c3ccc[nH]3)C(C)CC4C)nc2c1C(=O)O (centres unmarked) [A-23187 (free acid), reference compound]	1060	–	0.5	0.5	not complete	transports Mg^2+ with a similar efficiency to Ca^2+	substantially selective for the transport of divalent over monovalent cations
